Results reported in patent publication US10227344B2, “CK2 inhibitors, compositions and methods thereof” (Polaris Pharmaceuticals, Inc., priority 2016, dated 2019).

Assays:
Type in all cases: cell-based
PC3 = test: Cancer cell panel, cell viability (resazurin): Prostate, PC3; settings: 72 hours, labelled drug combined with Example 3
Description: (§1) Cells were plated in 96-well plates and treated for 72 hours with a serially diluted CK2 inhibitor or anti-cancer drug or their combination. The suspension cell lines were treated right after plating, while the adherent cells were allowed to attach overnight prior to the start of the treatment.
(§2) Cell viability was determined by adding resazurin to cell cultures and measuring fluorescence with a plate reader. Relative cell viability was calculated by dividing the cell viability signal from a test sample by that of a non-treated control. […] Bliss Independence and Highest Single Agent models were used to determine if there is synergy, additivity or antagonism between the CK2 inhibitor and an anti-cancer drug.

SKOV-3 = test: Cancer cell panel, cell viability (resazurin): Ovarian, SKOV-3; settings: SKOV-3 (Ovarian), 72 hours; labelled drug combined with Example 3
OVCAR-3 = test: Cancer cell panel, cell viability (resazurin): Ovarian, OVCAR-3; settings: OVCAR-3 (Ovarian), 72 hours; labelled drug combined with Example 3
Description: as §1, §2

A2780 = test: Cancer cell panel, cell viability (resazurin): Ovarian, A2780; settings: 72 hours, labelled drug combined with Example 3
Caov-3 = test: Cancer cell panel, cell viability (resazurin): Ovarian, Caov-3; settings: Caov-3 (Ovarian), 72 hours; labelled drug combined with Example 3
Mia-Paca-2 = test: Cancer cell panel, cell viability (resazurin): Pancreatic, Mia-Paca-2; settings: Mia-Paca-2 (Pancreatic), 72 hours; labelled drug combined with Example 3
Panc-1 = test: Cancer cell panel, cell viability (resazurin): Pancreatic, Panc-1; settings: Panc-1 (Pancreatic), 72 hours; labelled drug combined with Example 3
BxPC3 = test: Cancer cell panel, cell viability (resazurin): Pancreatic, BxPC3; settings: 72 hours, labelled drug combined with Example 3
HCT116 = test: Cancer cell panel, cell viability (resazurin): Colon, HCT116; settings: 72 hours, labelled drug combined with Example 3
HT29 = test: Cancer cell panel, cell viability (resazurin): Colon, HT29; settings: 72 hours, labelled drug combined with Example 3
Colo205 = test: Cancer cell panel, cell viability (resazurin): Colon, Colo205; settings: 72 hours, labelled drug combined with Example 3
LoVo = test: Cancer cell panel, cell viability (resazurin): Colon, LoVo; settings: 72 hours, labelled drug combined with Example 3
Description: as §1, §2

DLD-1 = test: Cancer cell panel, cell viability (resazurin): Colon, DLD-1; settings: DLD-1 (Colon), 72 hours; labelled drug combined with Example 3
H1299 = test: Cancer cell panel, cell viability (resazurin): NSCLC, H1299; settings: 72 hours, labelled drug combined with Example 3
A549 = test: Cancer cell panel, cell viability (resazurin): NSCLC, A549; settings: 72 hours, labelled drug combined with Example 3
H460 = test: Cancer cell panel, cell viability (resazurin): NSCLC, H460; settings: 72 hours, labelled drug combined with Example 3
Description: as §1, §2

H1975 = test: Cancer cell panel, cell viability (resazurin): NSCLC, H1975; settings: 72 hours, labelled drug combined with Example 3
H23 = test: Cancer cell panel, cell viability (resazurin): NSCLC, H23; settings: 72 hours, labelled drug combined with Example 3
H2122 = test: Cancer cell panel, cell viability (resazurin): NSCLC, H2122; settings: 72 hours, labelled drug combined with Example 3
Description: as §1, §2

SkBr-3 = test: Cancer cell panel, cell viability (resazurin): Breast, SkBr-3; settings: SkBr-3 (Breast), 72 hours; labelled drug combined with Example 3
Description: as §1, §2

MDA-MB-453 = test: Cancer cell panel, cell viability (resazurin): Breast, MDA-MB-453; settings: MDA-MB-453 (Breast), 72 hours; labelled drug combined with Example 3
MDA-MB-231 = test: Cancer cell panel, cell viability (resazurin): Breast, MDA-MB-231; settings: MDA-MB-231 (Breast), 72 hours; labelled drug combined with Example 3
Description: as §1, §2

MDA-MB-157 = test: Cancer cell panel, cell viability (resazurin): Breast, MDA-MB-157; settings: MDA-MB-157 (Breast), 72 hours; labelled drug combined with Example 3
Description: as §1, §2

BT-20 = test: Cancer cell panel, cell viability (resazurin): Breast, BT-20; settings: BT-20 (Breast), 72 hours; labelled drug combined with Example 3
BT-474 = test: Cancer cell panel, cell viability (resazurin): Breast, BT-474; settings: BT-474 (Breast), 72 hours; labelled drug combined with Example 3
T47D = test: Cancer cell panel, cell viability (resazurin): Breast, T47D; settings: 72 hours, labelled drug combined with Example 3
MCF7 = test: Cancer cell panel, cell viability (resazurin): Breast, MCF7; settings: 72 hours, labelled drug combined with Example 3
ACHN = test: Cancer cell panel, cell viability (resazurin): Renal, ACHN; settings: 72 hours, labelled drug combined with Example 3
Caki-1 = test: Cancer cell panel, cell viability (resazurin): Renal, Caki-1; settings: Caki-1 (Renal), 72 hours; labelled drug combined with Example 3
Description: as §1, §2

Caki-2 = test: Cancer cell panel, cell viability (resazurin): Renal, Caki-2; settings: Caki-2 (Renal), 72 hours; labelled drug combined with Example 3
Description: as §1, §2

A375 = test: Cancer cell panel, cell viability (resazurin): Melanoma, A375; settings: 72 hours, labelled drug combined with Example 3
Description: as §1, §2

SK-MEL-24 = test: Cancer cell panel, cell viability (resazurin): Melanoma, SK-MEL-24; settings: SK-MEL-24 (Melanoma), 72 hours; labelled drug combined with Example 3
WM-115 = test: Cancer cell panel, cell viability (resazurin): Melanoma, WM-115; settings: WM-115 (Melanoma), 72 hours; labelled drug combined with Example 3
U266 = test: Cancer cell panel, cell viability (resazurin): multiple myeloma, U266; settings: 72 hours, labelled drug combined with Example 3
Description: as §1, §2

RPMI8226 = test: Cancer cell panel, cell viability (resazurin): multiple myeloma, RPMI8226; settings: 72 hours, labelled drug combined with Example 3
Description: as §1, §2

Ramos = test: Cancer cell panel, cell viability (resazurin): Burkitt's Lymphoma, Ramos; settings: 72 hours, labelled drug combined with Example 3
Raji = test: Cancer cell panel, cell viability (resazurin): Burkitt's Lymphoma, Raji; settings: 72 hours, labelled drug combined with Example 3
Daudi = test: Cancer cell panel, cell viability (resazurin): Burkitt's Lymphoma, Daudi; settings: 72 hours, labelled drug combined with Example 3
K562 = test: Cancer cell panel, cell viability (resazurin): Leukemia, K562; settings: 72 hours, labelled drug combined with Example 3
Description: as §1, §2

HL60 = test: Cancer cell panel, cell viability (resazurin): Leukemia, HL60; settings: 72 hours, labelled drug combined with Example 3
Description: as §1, §2

EOL-1 = test: Cancer cell panel, cell viability (resazurin): Leukemia, EOL-1; settings: EOL-1 (Leukemia), 72 hours; labelled drug combined with Example 3

## CC(C)C[C@H](NC(=O)[C@H](Cc1ccccc1)NC(=O)c1cnccn1)B(O)O [Bortezomib, bortezomib]
PC3
  synergy, additivity or antagonism of the combination of Example 3 with the anti-cancer drug: + (Additive relative to each agent alone (CI = 0.9-1 by Bliss Independence Model and <0.9 by Highest Single Agent Model))
SKOV-3
  synergy, additivity or antagonism of the combination of Example 3 with the anti-cancer drug: + + + (Synergy relative to each agent alone (CI = 0.4-0.74 by Bliss Independence Model))
OVCAR-3
  synergy, additivity or antagonism of the combination of Example 3 with the anti-cancer drug: + (Additive relative to each agent alone (CI = 0.9-1 by Bliss Independence Model and <0.9 by Highest Single Agent Model))
A2780
  synergy, additivity or antagonism of the combination of Example 3 with the anti-cancer drug: + + (Slight synergy relative to each agent alone (CI = 0.75-0.9 by Bliss Independence Model))
Caov-3
  synergy, additivity or antagonism of the combination of Example 3 with the anti-cancer drug: + (Additive relative to each agent alone (CI = 0.9-1 by Bliss Independence Model and <0.9 by Highest Single Agent Model))
Mia-Paca-2
  synergy, additivity or antagonism of the combination of Example 3 with the anti-cancer drug: + + (Slight synergy relative to each agent alone (CI = 0.75-0.9 by Bliss Independence Model))
Panc-1
  synergy, additivity or antagonism of the combination of Example 3 with the anti-cancer drug: + (Additive relative to each agent alone (CI = 0.9-1 by Bliss Independence Model and <0.9 by Highest Single Agent Model))
BxPC3
  synergy, additivity or antagonism of the combination of Example 3 with the anti-cancer drug: + + + (Synergy relative to each agent alone (CI = 0.4-0.74 by Bliss Independence Model))
HCT116
  synergy, additivity or antagonism of the combination of Example 3 with the anti-cancer drug: + + (Slight synergy relative to each agent alone (CI = 0.75-0.9 by Bliss Independence Model))
HT29
  synergy, additivity or antagonism of the combination of Example 3 with the anti-cancer drug: + (Additive relative to each agent alone (CI = 0.9-1 by Bliss Independence Model and <0.9 by Highest Single Agent Model))
Colo205
  synergy, additivity or antagonism of the combination of Example 3 with the anti-cancer drug: − (Slightly antagonistic relative to each agent alone (CI = 1.1-1.2 by Highest Single Agent Model))
LoVo
  synergy, additivity or antagonism of the combination of Example 3 with the anti-cancer drug: + (Additive relative to each agent alone (CI = 0.9-1 by Bliss Independence Model and <0.9 by Highest Single Agent Model))
DLD-1
  synergy, additivity or antagonism of the combination of Example 3 with the anti-cancer drug: + + + (Synergy relative to each agent alone (CI = 0.4-0.74 by Bliss Independence Model))
H1299
  synergy, additivity or antagonism of the combination of Example 3 with the anti-cancer drug: + (Additive relative to each agent alone (CI = 0.9-1 by Bliss Independence Model and <0.9 by Highest Single Agent Model))
A549
  synergy, additivity or antagonism of the combination of Example 3 with the anti-cancer drug: + + + (Synergy relative to each agent alone (CI = 0.4-0.74 by Bliss Independence Model))
H460
  synergy, additivity or antagonism of the combination of Example 3 with the anti-cancer drug: + + (Slight synergy relative to each agent alone (CI = 0.75-0.9 by Bliss Independence Model))
H1975
  synergy, additivity or antagonism of the combination of Example 3 with the anti-cancer drug: + (Additive relative to each agent alone (CI = 0.9-1 by Bliss Independence Model and <0.9 by Highest Single Agent Model))
H23
  synergy, additivity or antagonism of the combination of Example 3 with the anti-cancer drug: + (Additive relative to each agent alone (CI = 0.9-1 by Bliss Independence Model and <0.9 by Highest Single Agent Model))
H2122
  synergy, additivity or antagonism of the combination of Example 3 with the anti-cancer drug: + (Additive relative to each agent alone (CI = 0.9-1 by Bliss Independence Model and <0.9 by Highest Single Agent Model))
SkBr-3
  synergy, additivity or antagonism of the combination of Example 3 with the anti-cancer drug: + (Additive relative to each agent alone (CI = 0.9-1 by Bliss Independence Model and <0.9 by Highest Single Agent Model))
MDA-MB-453
  synergy, additivity or antagonism of the combination of Example 3 with the anti-cancer drug: + (Additive relative to each agent alone (CI = 0.9-1 by Bliss Independence Model and <0.9 by Highest Single Agent Model))
MDA-MB-231
  synergy, additivity or antagonism of the combination of Example 3 with the anti-cancer drug: + (Additive relative to each agent alone (CI = 0.9-1 by Bliss Independence Model and <0.9 by Highest Single Agent Model))
MDA-MB-157
  synergy, additivity or antagonism of the combination of Example 3 with the anti-cancer drug: + + + (Synergy relative to each agent alone (CI = 0.4-0.74 by Bliss Independence Model))
BT-20
  synergy, additivity or antagonism of the combination of Example 3 with the anti-cancer drug: + + (Slight synergy relative to each agent alone (CI = 0.75-0.9 by Bliss Independence Model))
BT-474
  synergy, additivity or antagonism of the combination of Example 3 with the anti-cancer drug: + + (Slight synergy relative to each agent alone (CI = 0.75-0.9 by Bliss Independence Model))
T47D
  synergy, additivity or antagonism of the combination of Example 3 with the anti-cancer drug: + (Additive relative to each agent alone (CI = 0.9-1 by Bliss Independence Model and <0.9 by Highest Single Agent Model))
MCF7
  synergy, additivity or antagonism of the combination of Example 3 with the anti-cancer drug: − − (Antagonistic relative to each agent alone (CI = 1.2-1.49 by Highest Single Agent Model))
ACHN
  synergy, additivity or antagonism of the combination of Example 3 with the anti-cancer drug: + + (Slight synergy relative to each agent alone (CI = 0.75-0.9 by Bliss Independence Model))
Caki-1
  synergy, additivity or antagonism of the combination of Example 3 with the anti-cancer drug: + (Additive relative to each agent alone (CI = 0.9-1 by Bliss Independence Model and <0.9 by Highest Single Agent Model))
Caki-2
  synergy, additivity or antagonism of the combination of Example 3 with the anti-cancer drug: + (Additive relative to each agent alone (CI = 0.9-1 by Bliss Independence Model and <0.9 by Highest Single Agent Model))
A375
  synergy, additivity or antagonism of the combination of Example 3 with the anti-cancer drug: + (Additive relative to each agent alone (CI = 0.9-1 by Bliss Independence Model and <0.9 by Highest Single Agent Model))
SK-MEL-24
  synergy, additivity or antagonism of the combination of Example 3 with the anti-cancer drug: + + + (Synergy relative to each agent alone (CI = 0.4-0.74 by Bliss Independence Model))
WM-115
  synergy, additivity or antagonism of the combination of Example 3 with the anti-cancer drug: + + (Slight synergy relative to each agent alone (CI = 0.75-0.9 by Bliss Independence Model))
U266
  synergy, additivity or antagonism of the combination of Example 3 with the anti-cancer drug: + (Additive relative to each agent alone (CI = 0.9-1 by Bliss Independence Model and <0.9 by Highest Single Agent Model))
RPMI8226
  synergy, additivity or antagonism of the combination of Example 3 with the anti-cancer drug: + (Additive relative to each agent alone (CI = 0.9-1 by Bliss Independence Model and <0.9 by Highest Single Agent Model))
Ramos
  synergy, additivity or antagonism of the combination of Example 3 with the anti-cancer drug: + (Additive relative to each agent alone (CI = 0.9-1 by Bliss Independence Model and <0.9 by Highest Single Agent Model))
Raji
  synergy, additivity or antagonism of the combination of Example 3 with the anti-cancer drug: + + (Slight synergy relative to each agent alone (CI = 0.75-0.9 by Bliss Independence Model))
Daudi
  synergy, additivity or antagonism of the combination of Example 3 with the anti-cancer drug: + (Additive relative to each agent alone (CI = 0.9-1 by Bliss Independence Model and <0.9 by Highest Single Agent Model))
K562
  synergy, additivity or antagonism of the combination of Example 3 with the anti-cancer drug: + (Additive relative to each agent alone (CI = 0.9-1 by Bliss Independence Model and <0.9 by Highest Single Agent Model))
HL60
  synergy, additivity or antagonism of the combination of Example 3 with the anti-cancer drug: + (Additive relative to each agent alone (CI = 0.9-1 by Bliss Independence Model and <0.9 by Highest Single Agent Model))
EOL-1
  synergy, additivity or antagonism of the combination of Example 3 with the anti-cancer drug: + + (Slight synergy relative to each agent alone (CI = 0.75-0.9 by Bliss Independence Model))
